Source: patent publication US20110243924A1, “NOVEL METHODS” (priority 2007, published 2011)

How the values were obtained:
[1] = molecular target: T1, M4 human muscarinic receptor (Homo sapiens, UniProt P08173); assay: Binding of aclidinium metabolites to muscarinic receptors
T1 sequence (P08173 1-479): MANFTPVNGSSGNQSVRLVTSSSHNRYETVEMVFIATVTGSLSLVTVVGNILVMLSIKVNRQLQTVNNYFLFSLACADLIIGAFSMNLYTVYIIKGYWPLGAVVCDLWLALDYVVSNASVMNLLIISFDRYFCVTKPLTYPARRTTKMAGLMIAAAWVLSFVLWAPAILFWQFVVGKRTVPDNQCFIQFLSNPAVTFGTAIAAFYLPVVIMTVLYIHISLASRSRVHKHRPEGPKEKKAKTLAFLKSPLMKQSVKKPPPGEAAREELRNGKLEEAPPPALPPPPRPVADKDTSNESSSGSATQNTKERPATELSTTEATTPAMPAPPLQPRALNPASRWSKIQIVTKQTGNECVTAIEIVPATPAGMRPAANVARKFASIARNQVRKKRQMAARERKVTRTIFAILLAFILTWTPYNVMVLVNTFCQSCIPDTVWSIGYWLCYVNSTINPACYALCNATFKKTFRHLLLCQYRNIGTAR
Method: (§1) Aclidinium is rapidly hydrolyzed in human plasma in its alcohol and acid metabolites. […] The plasma half life of aclidinium in plasma is lower than 5 minutes for human. Moreover, aclidinium is stable in acid aqueous solutions (pH≦4) and the hydrolytic cleavage of the ester bond takes place at neutral and basic pHs.

[2] = molecular target: T2, M2 human muscarinic receptor (Homo sapiens, UniProt P08172); assay: as above
T2 sequence (P08172 1-466): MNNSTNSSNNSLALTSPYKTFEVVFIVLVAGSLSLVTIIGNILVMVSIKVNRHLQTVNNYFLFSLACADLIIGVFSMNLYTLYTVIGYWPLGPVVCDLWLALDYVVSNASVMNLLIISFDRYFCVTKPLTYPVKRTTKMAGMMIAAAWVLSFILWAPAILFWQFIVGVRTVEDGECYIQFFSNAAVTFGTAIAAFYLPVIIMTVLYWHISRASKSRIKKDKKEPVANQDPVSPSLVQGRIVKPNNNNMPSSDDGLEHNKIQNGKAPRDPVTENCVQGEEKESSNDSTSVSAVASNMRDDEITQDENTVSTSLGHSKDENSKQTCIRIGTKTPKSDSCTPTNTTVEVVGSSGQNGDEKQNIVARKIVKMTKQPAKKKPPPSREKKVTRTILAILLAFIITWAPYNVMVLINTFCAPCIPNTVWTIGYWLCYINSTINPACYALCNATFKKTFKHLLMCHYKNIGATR
Method: as §1

[3] = molecular target: T3, M1 human muscarinic receptor (Homo sapiens, UniProt P11229); assay: as above
T3 sequence (P11229 1-460): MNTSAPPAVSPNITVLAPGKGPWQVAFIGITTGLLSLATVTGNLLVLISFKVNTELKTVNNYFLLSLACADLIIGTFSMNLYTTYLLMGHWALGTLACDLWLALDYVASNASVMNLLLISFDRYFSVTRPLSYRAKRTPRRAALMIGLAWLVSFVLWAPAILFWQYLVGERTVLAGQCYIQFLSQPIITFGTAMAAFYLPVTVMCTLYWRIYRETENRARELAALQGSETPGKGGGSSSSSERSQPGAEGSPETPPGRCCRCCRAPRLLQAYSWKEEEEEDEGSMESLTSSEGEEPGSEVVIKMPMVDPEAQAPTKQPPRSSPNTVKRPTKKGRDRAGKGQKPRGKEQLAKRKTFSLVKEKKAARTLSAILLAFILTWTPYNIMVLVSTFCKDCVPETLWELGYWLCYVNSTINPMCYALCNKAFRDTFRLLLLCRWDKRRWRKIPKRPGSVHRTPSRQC
Method: as §1

[4] = molecular target: M3 human muscarinic receptor (Homo sapiens, UniProt P20309); assay: as above
Method: as §1

[5] = tested on: Men with COPD; assay: Clinical Phase II study, single inhaled doses by dry powder inhaler; assay type: in vivo, human; settings: for mean FEV1 AUC(0-24)/24: placebo 1.597 L
Text: Clinical Phase […] study: A double-blind, randothised, placebo-controlled, cross-over trial assesses the pharmacodynamics, pharmacokinetics and tolerability of aclidinium and its effects in COPD patients
Lung function measurements include FEV1 and FVC.

[6] = In vitro stability in human plasma; assay type: in vitro ADME; settings: human plasma (lithium heparin), 36° C.
Method: The in vitro experiments are carried out at 36° C. and at a concentration of 5 μg/ml (6 μl of a 1 mg/ml dimethyl sulfoxide solution of each substance is added to a final volume of 1.2 ml). After 3 minutes of pre-incubation, reaction is started by addition of the test substances. At pre-defined times of 0, 5, 15, 30 and 60 min., aliquots of 100 μl of the plasma are separated and the reaction stopped by the addition of 1 ml of a 20 mM, pH 4.0 sodium acetate buffer solution. The test substances are replaced with buffer for the control reactions. Human plasma is obtained from volunteers by written informed consent. The blood is collected in tubes containing lithium heparin as anticoagulant, immediately centrifuged at 4° C. and the resultant plasma stored at −20° C. when not in use.
Plasma samples, previously diluted with 1 ml of a 20 mM, pH 4.0 sodium acetate buffer solution, were loaded into the C2 cartridges. […] There are no significant endogenous peaks at retention times of the analytes that would interfere with their quantitation. […] The lower limit of quantitation is established at 5 mg/ml for all analytes.

[7] = tested on: healthy male volunteers; assay: Clinical Phase I study, single inhaled doses by dry powder inhaler; assay type: in vivo, human
Method: Clinical Phase I study: Aclidinium bromide is tested in a Phase I, double-blind, partial cross-over, placebo controlled study to assess the activity, pharmacokinetics and tolerability of aclidinium.
Methods: 12 healthy male volunteers are randomly assigned to 1 of 4 treatment sequences comprising single doses of aclidinium (50, 300 and 600 micrograms) or placebo administered by dry powder inhaler. The washout period between administrations is at least 6 days. Efficacy endpoints are specific airway conductance (sGaw), airway resistance (Raw) and bronchial hyperresponsiveness (PC35 sGaw methacholine).

[8] = Stability in aqueous solutions; assay type: physicochemical; settings: pH≦4
Method: as §1

[9] = after inhaled single doses 100, 300, 900 micrograms

M3 human muscarinic receptor, sequence (P20309 whole entry): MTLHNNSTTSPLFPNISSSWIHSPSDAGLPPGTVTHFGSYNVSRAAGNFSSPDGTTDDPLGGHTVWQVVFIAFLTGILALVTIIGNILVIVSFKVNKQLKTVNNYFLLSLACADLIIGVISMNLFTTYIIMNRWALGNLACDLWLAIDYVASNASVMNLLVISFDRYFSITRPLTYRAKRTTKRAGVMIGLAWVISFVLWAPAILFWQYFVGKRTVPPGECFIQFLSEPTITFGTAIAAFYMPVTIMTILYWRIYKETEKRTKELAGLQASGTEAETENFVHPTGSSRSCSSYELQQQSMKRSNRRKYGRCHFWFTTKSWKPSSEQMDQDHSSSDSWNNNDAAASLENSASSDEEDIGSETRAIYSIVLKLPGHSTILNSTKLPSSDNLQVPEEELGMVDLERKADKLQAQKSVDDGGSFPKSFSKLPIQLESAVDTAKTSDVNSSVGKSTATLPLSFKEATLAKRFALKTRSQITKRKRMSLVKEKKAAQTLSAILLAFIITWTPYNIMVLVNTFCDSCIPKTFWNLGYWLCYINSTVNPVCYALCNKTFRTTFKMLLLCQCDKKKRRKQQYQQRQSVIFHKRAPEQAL

SMILES	affinity for M4 human muscarinic receptor [1]	affinity for M2 human muscarinic receptor [2]	affinity for M1 human muscarinic receptor [3]	affinity for M3 human muscarinic receptor [4]	plasma levels ([5]; following the 900 microgram dose)	mean FEV1 AUC(0-24)/24 ([5]; aclidinium 100 micrograms, p=0.002) [L]	mean FEV1 AUC(0-24)/24 ([5]; aclidinium 300 micrograms, p<0.0001) [L]	mean FEV1 AUC(0-24)/24 ([5]; aclidinium 900 micrograms) [L]	plasma levels [5, 9]	cases of mildly increased sweating possibly related to treatment ([5]; human, in vivo)	tolerability ([5]; single inhaled doses 100-900 micrograms)	cases of mild or moderate headache possibly related to treatment ([5]; vs 2 with placebo) [cases]	half-life at 5 μg/ml [6] [min]	PC35 sGaw methacholine (methacholine dose required to decrease sGaw) ([7]; aclidinium 300 micrograms, at 2 h, placebo 35.5) [mg/mL]	PC35 sGaw methacholine (methacholine dose required to decrease sGaw) ([7]; aclidinium 300 micrograms, at 24 h, placebo 27.1) [mg/mL]	PC35 sGaw methacholine (methacholine dose required to decrease sGaw) ([7]; aclidinium 600 micrograms, at 2 h, placebo 35.5) [mg/mL]	PC35 sGaw methacholine (methacholine dose required to decrease sGaw) ([7]; aclidinium 600 micrograms, at 24 h, placebo 27.1) [mg/mL]	detection in plasma ([7]; after inhaled single doses 50-600 micrograms)	study-drug-related adverse events ([7]; single inhaled doses 50-600 micrograms)	stability in acid aqueous solutions [8]
O=C(O)C(O)(c1cccs1)c1cccs1 [acid metabolite]	devoid of significant affinity	devoid of significant affinity	devoid of significant affinity	devoid of significant affinity	low levels	–	–	–	–	–	–	–	–	–	–	–	–	–	–	–
O=C(O[C@H]1C[N+]2(CCCOc3ccccc3)CCC1CC2)C(O)(c1cccs1)c1cccs1 [aclidinium, 3(R)-(2-hydroxy-2,2-dithien-2-ylacetoxy)-1-(3-phenoxypropyl)-1-azoniabicyclo[2.2.2]octane]	–	–	–	–	–	1.800	1.798	1.827	No plasma levels	1	well tolerated	6	< 5	207.1	142.7	256.0	181.7	Neither aclidinium nor its metabolites are detected	no study-drug-related adverse events	stable
O[C@H]1C[N+]2(CCCOc3ccccc3)CCC1CC2 [alcohol metabolite]	devoid of significant affinity	devoid of significant affinity	devoid of significant affinity	devoid of significant affinity	–	–	–	–	No plasma levels	–	–	–	–	–	–	–	–	–	–	–
